How the values were obtained:
Type in all cases: in vivo
[1] = system: Abutilon theophrasti; assay: Post-emergence herbicidal efficacy at 320 g/ha, ABUTH; settings: rated visually after about 3 weeks vs untreated controls, 100% = plants have died
Excerpt: (§1) Unwanted plants/weeds: • ABUTH: Abutilon theophrasti • ALOMY: Alopecurus myosuroides • AMARE: Amaranthus retroflexus • DIGSA: Digitaria sanguinalis • ECHCG: Echinochloa crus-galli • KCHSC: Kochia scoparia • LOLRI: Lolium rigidum • MATIN: Matricaria inodora • POAAN: Poa annua • POLCO: Polygonum convolvulus • SETVI: Setaria viridis • STEME: Stellaria media • VERPE: Veronica persica • VIOTR: Viola tricolor A. Post-Emergence Herbicidal Efficacy at 320 g/ha
(§2) Seeds of mono- and dicotyledonous weed plants were placed in plastic pots in sandy loam soil (doubly sown with in each case one species of mono- or dicotyledonous weed plants per pot), covered with soil and cultivated in a greenhouse under controlled growth conditions. 2 to 3 weeks after sowing, the test plants were treated at the one-leaf stage. The compounds of the invention, formulated in the form of wettable powders (WP) or as emulsion concentrates (EC), were applied to the green parts of the plants as aqueous suspension or emulsion with addition of 0.5% additive at a water application rate equivalent to 600 litres per hectare. After the test plants had been kept in the greenhouse under optimum growth conditions for about 3 weeks, the activity of the preparations was rated visually in comparison to untreated controls.
(§3) For example, 100% activity=the plants have died, 0% activity=like control plants.
(§4) Tables A1 to A10 below show the effects of selected compounds of the general formula (I) according to Table 1 on various harmful plants and at an application rate corresponding to 320 g/ha, which were obtained by the trial procedure specified above.

[2] = system: Amaranthus retroflexus; assay: Post-emergence herbicidal efficacy at 320 g/ha, AMARE; settings: rated visually after about 3 weeks vs untreated controls, 100% = plants have died
Summary of the method: (§5)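 Visual rating about 3 weeks after treatment, scored against untreated plants on a scale from 0% (no effect) to 100% (dead). Application was foliar, as aqueous WP or EC suspension or emulsion with 0.5% additive at 600 L/ha, on one-leaf-stage greenhouse plants 2–3 weeks old, grown in sandy loam.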

[3] = system: Digitaria sanguinalis; assay: Post-emergence herbicidal efficacy at 320 g/ha, DIGSA; settings: rated visually after about 3 weeks vs untreated controls, 100% = plants have died
Excerpt: as §1, §2, §3, §4

[4] = system: Echinochloa crus-galli; assay: Post-emergence herbicidal efficacy at 320 g/ha, ECHCG; settings: rated visually after about 3 weeks vs untreated controls, 100% = plants have died
Excerpt: as §1, §2, §3, §4

[5] = system: Kochia scoparia; assay: Post-emergence herbicidal efficacy at 320 g/ha, KCHSC; settings: rated visually after about 3 weeks vs untreated controls, 100% = plants have died
Summary of the method: as §5

[6] = system: Poa annua; assay: Post-emergence herbicidal efficacy at 320 g/ha, POAAN; settings: rated visually after about 3 weeks vs untreated controls, 100% = plants have died
Excerpt: as §1, §2, §3, §4

[7] = system: Setaria viridis; assay: Post-emergence herbicidal efficacy at 320 g/ha, SETVI; settings: rated visually after about 3 weeks vs untreated controls, 100% = plants have died
Excerpt: as §1, §2, §3, §4

[8] = system: Stellaria media; assay: Post-emergence herbicidal efficacy at 320 g/ha, STEME; settings: rated visually after about 3 weeks vs untreated controls, 100% = plants have died
Summary of the method: as §5

[9] = system: Veronica persica; assay: Post-emergence herbicidal efficacy at 320 g/ha, VERPE; settings: rated visually after about 3 weeks vs untreated controls, 100% = plants have died
Summary of the method: as §5

[10] = system: Amaranthus retroflexus; assay: Post-emergence herbicidal efficacy at 80 g/ha, AMARE; settings: rated visually after about 3 weeks vs untreated controls, 100% = plants have died
Excerpt: as §1
(§6) Seeds of monocotyledonous and dicotyledonous weeds and crop plants were placed in sandy loam in plastic or organic planting pots, covered with soil and cultivated in a greenhouse under controlled growth conditions. 2 to 3 weeks after sowing, the test plants were treated at the one-leaf stage. The compounds of the invention, formulated in the form of wettable powders (WP) or as emulsion concentrates (EC), were then sprayed onto the green parts of the plants as aqueous suspension or emulsion with addition of 0.5% additive at a water application rate of 600 l/ha (converted). After the test plants had been kept in the greenhouse under optimum growth conditions for about 3 weeks, the activity of the preparations was rated visually in comparison to untreated controls. For example, 100% activity=the plants have died, 0% activity=like control plants.
(§7) Tables B1 to B11 below show the effects of selected compounds of the general formula (I) according to Table 1 on various harmful plants and an application rate corresponding to 80 g/ha, which were obtained by the experimental procedure mentioned above.

[11] = system: Kochia scoparia; assay: Post-emergence herbicidal efficacy at 80 g/ha, KCHSC; settings: rated visually after about 3 weeks vs untreated controls, 100% = plants have died
Excerpt: as §1, §6, §7

[12] = system: Veronica persica; assay: Post-emergence herbicidal efficacy at 80 g/ha, VERPE; settings: rated visually after about 3 weeks vs untreated controls, 100% = plants have died
Excerpt: as §1, §6, §7

[13] = system: Viola tricolor; assay: Post-emergence herbicidal efficacy at 80 g/ha, VIOTR; settings: rated visually after about 3 weeks vs untreated controls, 100% = plants have died
Excerpt: as §1, §6, §7

[14] = system: Abutilon theophrasti; assay: Pre-emergence herbicide efficacy at 320 g/ha, ABUTH; settings: scored visually after about 3 weeks vs untreated controls, 100% = plants have died
Excerpt: as §1
(§8) Seeds of mono- and dicotyledonous weed plants were placed in plastic pots in sandy loam soil (doubly sown with one species each of mono- or dicotyledonous weed plants per pot) and covered with soil. The compounds of the invention, formulated in the form of wettable powders (WP) or as emulsion concentrates (EC), were then applied to the surface of the covering soil as aqueous suspension or emulsion with addition of 0.5% additive at a water application rate of 600 litres per hectare (converted). After the treatment, the pots were placed in a greenhouse and kept under good growth conditions for the test plants. After about 3 weeks, the efficacy of the preparations was scored visually in comparison with untreated controls as percentages.
as §3
(§9) Tables C1 to C12 below show the effects of selected compounds of the general formula (I) according to Table 1 on various harmful plants and at an application rate corresponding to 320 g/ha, which were obtained by the trial procedure specified above.

[15] = system: Amaranthus retroflexus; assay: Pre-emergence herbicide efficacy at 320 g/ha, AMARE; settings: scored visually after about 3 weeks vs untreated controls, 100% = plants have died
Summary of the method: (§10)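 Pre-emergence soil-surface spray of WP or EC formulation in water at 600 L/ha with 0.5% additive, over seeds covered in sandy loam. Scoring visual, ~3 weeks, % of untreated.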

[16] = system: Digitaria sanguinalis; assay: Pre-emergence herbicide efficacy at 320 g/ha, DIGSA; settings: scored visually after about 3 weeks vs untreated controls, 100% = plants have died
Excerpt: as §1, §8, §3, §9

[17] = system: Echinochloa crus-galli; assay: Pre-emergence herbicide efficacy at 320 g/ha, ECHCG; settings: scored visually after about 3 weeks vs untreated controls, 100% = plants have died
Excerpt: as §1, §8, §3, §9

[18] = system: Kochia scoparia; assay: Pre-emergence herbicide efficacy at 320 g/ha, KCHSC; settings: scored visually after about 3 weeks vs untreated controls, 100% = plants have died
Excerpt: as §1, §8, §3, §9

[19] = system: Matricaria inodora; assay: Pre-emergence herbicide efficacy at 320 g/ha, MATIN; settings: scored visually after about 3 weeks vs untreated controls, 100% = plants have died
Excerpt: as §1, §8, §3, §9

[20] = system: Poa annua; assay: Pre-emergence herbicide efficacy at 320 g/ha, POAAN; settings: scored visually after about 3 weeks vs untreated controls, 100% = plants have died
Excerpt: as §1, §8, §3, §9

[21] = system: Setaria viridis; assay: Pre-emergence herbicide efficacy at 320 g/ha, SETVI; settings: scored visually after about 3 weeks vs untreated controls, 100% = plants have died
Summary of the method: as §10

[22] = system: Stellaria media; assay: Pre-emergence herbicide efficacy at 320 g/ha, STEME; settings: scored visually after about 3 weeks vs untreated controls, 100% = plants have died
Excerpt: as §1, §8, §3, §9

[23] = system: Veronica persica; assay: Pre-emergence herbicide efficacy at 320 g/ha, VERPE; settings: scored visually after about 3 weeks vs untreated controls, 100% = plants have died
Excerpt: as §1, §8, §3, §9

[24] = system: Abutilon theophrasti; assay: Pre-emergence herbicide efficacy at 80 g/ha, ABUTH; settings: scored visually after about 3 weeks vs untreated controls, 100% = plants have died
Excerpt: as §1
(§11) Seeds of monocotyledonous and dicotyledonous weed plants and crop plants were placed in plastic or organic planting pots and covered with soil. The compounds of the invention, formulated in the form of wettable powders (WP) or as emulsion concentrates (EC), were then applied to the surface of the covering soil as aqueous suspension or emulsion with addition of 0.5% additive at a water application rate equivalent to 600 l/ha. After the treatment, the pots were placed in a greenhouse and kept under good growth conditions for the test plants. After about 3 weeks, the efficacy of the preparations was scored visually in comparison with untreated controls as percentages. For example, 100% activity=the plants have died, 0% activity=like control plants.
(§12) Tables D1 to D12 below show the effects of selected compounds of the general formula (I) according to Table 1 on various harmful plants and an application rate corresponding to 80 g/ha, which were obtained by the experimental procedure mentioned above.

[25] = system: Amaranthus retroflexus; assay: Pre-emergence herbicide efficacy at 80 g/ha, AMARE; settings: scored visually after about 3 weeks vs untreated controls, 100% = plants have died
Excerpt: as §1, §11, §12

[26] = system: Digitaria sanguinalis; assay: Pre-emergence herbicide efficacy at 80 g/ha, DIGSA; settings: scored visually after about 3 weeks vs untreated controls, 100% = plants have died
Excerpt: as §1, §11, §12

[27] = system: Echinochloa crus-galli; assay: Pre-emergence herbicide efficacy at 80 g/ha, ECHCG; settings: scored visually after about 3 weeks vs untreated controls, 100% = plants have died
Excerpt: as §1, §11, §12

[28] = system: Kochia scoparia; assay: Pre-emergence herbicide efficacy at 80 g/ha, KCHSC; settings: scored visually after about 3 weeks vs untreated controls, 100% = plants have died
Excerpt: as §1, §11, §12

[29] = system: Matricaria inodora; assay: Pre-emergence herbicide efficacy at 80 g/ha, MATIN; settings: scored visually after about 3 weeks vs untreated controls, 100% = plants have died
Excerpt: as §1, §11, §12

[30] = system: Polygonum convolvulus; assay: Pre-emergence herbicide efficacy at 80 g/ha, POLCO; settings: scored visually after about 3 weeks vs untreated controls, 100% = plants have died
Excerpt: as §1, §11, §12

[31] = system: Setaria viridis; assay: Pre-emergence herbicide efficacy at 80 g/ha, SETVI
Excerpt: as §1, §11, §12

[32] = system: Veronica persica; assay: Pre-emergence herbicide efficacy at 80 g/ha, VERPE
Excerpt: as §1, §11, §12

[33] = system: Viola tricolor; assay: Pre-emergence herbicide efficacy at 80 g/ha, VIOTR
Excerpt: as §1, §11, §12

Cc1cnn(-c2c(C#N)cccc2Nc2ncc(Cl)cn2)c1 [Example 1-66]
Post-emergence efficacy at 320 g/ha against ABUTH in % [1]: 100% | Post-emergence efficacy at 320 g/ha against AMARE in % [2]: 100% | Post-emergence efficacy at 320 g/ha against DIGSA in % [3]: 90% | Post-emergence efficacy at 320 g/ha against ECHCG in % [4]: 100% | Post-emergence efficacy at 320 g/ha against KCHSC in % [5]: 100% | Post-emergence efficacy at 320 g/ha against POAAN in % [6]: 100% | Post-emergence efficacy at 320 g/ha against SETVI in % [7]: 90% | Post-emergence efficacy at 320 g/ha against STEME in % [8]: 100% | Post-emergence efficacy at 320 g/ha against VERPE in % [9]: 100% | Post-emergence efficacy at 80 g/ha against AMARE in % [10]: 100% | Post-emergence efficacy at 80 g/ha against KCHSC in % [11]: 80% | Post-emergence efficacy at 80 g/ha against VERPE in % [12]: 90% | Post-emergence efficacy at 80 g/ha against VIOTR in % [13]: 90% | Pre-emergence efficacy at 320 g/ha against ABUTH in % [14]: 100% | Pre-emergence efficacy at 320 g/ha against AMARE in % [15]: 100% | Pre-emergence efficacy at 320 g/ha against DIGSA in % [16]: 100% | Pre-emergence efficacy at 320 g/ha against ECHCG in % [17]: 100% | Pre-emergence efficacy at 320 g/ha against KCHSC in % [18]: 100% | Pre-emergence efficacy at 320 g/ha against MATIN in % [19]: 90% | Pre-emergence efficacy at 320 g/ha against POAAN in % [20]: 100% | Pre-emergence efficacy at 320 g/ha against SETVI in % [21]: 100% | Pre-emergence efficacy at 320 g/ha against STEME in % [22]: 100% | Pre-emergence efficacy at 320 g/ha against VERPE in % [23]: 100% | Pre-emergence efficacy at 80 g/ha against ABUTH in % [24]: 80% | Pre-emergence efficacy at 80 g/ha against AMARE in % [25]: 100% | Pre-emergence efficacy at 80 g/ha against DIGSA in % [26]: 100% | Pre-emergence efficacy at 80 g/ha against ECHCG in % [27]: 90% | Pre-emergence efficacy at 80 g/ha against KCHSC in % [28]: 100% | Pre-emergence efficacy at 80 g/ha against MATIN in % [29]: 100% | Pre-emergence efficacy at 80 g/ha against POLCO in % [30]: 80% | Pre-emergence efficacy against SETVI [31]: 90% | Pre-emergence efficacy against VERPE [32]: 100% | Pre-emergence efficacy against VIOTR [33]: 100%

From patent publication US20250311727A1, “SUBSTITUTED 2-AMINOAZINES AND SALTS THEREOF, AND USE THEREOF AS HERBICIDAL ACTIVE SUBSTANCES” (BAYER AKTIENGESELLSCHAFT, priority 2022, published 2025)
